# Results as given in ChEMBL document CHEMBL2401728, “An unexpected Dimroth rearrangement leading to annelated thieno[3,2-d][1,2,3]triazolo[1,5-a]pyrimidines with potent antitumor activity” (Eur J Med Chem, 2013).
# Assays:
# Format in all cases: functional
# [1] = test system: PC-3; test: Cytotoxicity against human PC3 cells assessed as cellular growth at 10 uM after 48 hrs by SRB assay relative to control
# [2] = test system: CCRF-CEM; test: Cytotoxicity against human CCRF-CEM cells assessed as cellular growth at 10 uM after 48 hrs by SRB assay relative to control
# [3] = test system: RXF 393; test: Cytotoxicity against human RXF393 cells assessed as cellular growth at 10 uM after 48 hrs by SRB assay relative to control
# [4] = test system: OVCAR-5; test: Cytotoxicity against human OVCAR5 cells assessed as cellular growth at 10 uM after 48 hrs by SRB assay relative to control
# [5] = test system: MDA-MB-435; test: Cytotoxicity against human MDA-MB-435 cells assessed as cellular growth at 10 uM after 48 hrs by SRB assay relative to control
# [6] = test system: HOP-92; test: Cytotoxicity against human HOP92 cells assessed as cellular growth at 10 uM after 48 hrs by SRB assay relative to control
# [7] = test system: TK-10; test: Cytotoxicity against human TK10 cells assessed as cellular growth at 10 uM after 48 hrs by SRB assay relative to control
# [8] = test system: SNB-19; test: Cytotoxicity against human SNB19 cells assessed as cellular growth at 10 uM after 48 hrs by SRB assay relative to control
# [9] = test system: U-251; test: Cytotoxicity against human U251 cells assessed as cellular growth at 10 uM after 48 hrs by SRB assay relative to control
# [10] = test system: DU-145; test: Cytotoxicity against human DU145 cells assessed as cellular growth at 10 uM after 48 hrs by SRB assay relative to control
# [11] = test system: ACHN; test: Cytotoxicity against human ACHN cells assessed as cellular growth at 10 uM after 48 hrs by SRB assay relative to control
# [12] = test system: UACC-62; test: Cytotoxicity against human UACC62 cells assessed as cellular growth at 10 uM after 48 hrs by SRB assay relative to control
# [13] = test system: UO-31; test: Cytotoxicity against human UO31 cells assessed as cellular growth at 10 uM after 48 hrs by SRB assay relative to control
# [14] = test system: SF-295; test: Cytotoxicity against human SF295 cells assessed as cellular growth at 10 uM after 48 hrs by SRB assay relative to control
# [15] = test system: NCI-H226; test: Cytotoxicity against human NCI-H226 cells assessed as cellular growth at 10 uM after 48 hrs by SRB assay relative to control
# [16] = test system: MDA-MB-231; test: Cytotoxicity against human MDA-MB-231 cells assessed as cellular growth at 10 uM after 48 hrs by SRB assay relative to control
# [17] = test system: LOX IMVI; test: Cytotoxicity against human LOXIMVI cells assessed as cellular growth at 10 uM after 48 hrs by SRB assay relative to control
# [18] = test system: SF-268; test: Cytotoxicity against human SF268 cells assessed as cellular growth at 10 uM after 48 hrs by SRB assay relative to control
# [19] = test system: Malme-3M; test: Cytotoxicity against human MALME-3M cells assessed as cellular growth at 10 uM after 48 hrs by SRB assay relative to control
# [20] = test system: RPMI-8226; test: Cytotoxicity against human RPMI8226 cells assessed as cellular growth at 10 uM after 48 hrs by SRB assay relative to control
# [21] = test system: CAKI-1; test: Cytotoxicity against human Caki1 cells assessed as cellular growth at 10 uM after 48 hrs by SRB assay relative to control
# [22] = test system: K562; test: Cytotoxicity against human K562 cells assessed as cellular growth at 10 uM after 48 hrs by SRB assay relative to control
# [23] = test system: UACC-257; test: Cytotoxicity against human UACC257 cells assessed as cellular growth at 10 uM after 48 hrs by SRB assay relative to control
# [24] = test system: HT-29; test: Cytotoxicity against human HT-29 cells assessed as cellular growth at 10 uM after 48 hrs by SRB assay relative to control
# [25] = test system: A549; test: Cytotoxicity against human A549 cells assessed as cellular growth at 10 uM after 48 hrs by SRB assay relative to control
# [26] = test system: SK-MEL-2; test: Cytotoxicity against human SK-MEL-2 cells assessed as cellular growth at 10 uM after 48 hrs by SRB assay relative to control
# [27] = test system: NCI-H23; test: Cytotoxicity against human NCI-H23 cells assessed as cellular growth at 10 uM after 48 hrs by SRB assay relative to control
# [28] = test system: SK-MEL-5; test: Cytotoxicity against human SK-MEL-5 cells assessed as cellular growth at 10 uM after 48 hrs by SRB assay relative to control
# [29] = test system: HCC 2998; test: Cytotoxicity against human HCC2998 cells assessed as cellular growth at 10 uM after 48 hrs by SRB assay relative to control
# [30] = test system: OVCAR-4; test: Cytotoxicity against human OVCAR4 cells assessed as cellular growth at 10 uM after 48 hrs by SRB assay relative to control
# [31] = test system: MOLT-4; test: Cytotoxicity against human MOLT4 cells assessed as cellular growth at 10 uM after 48 hrs by SRB assay relative to control
# [32] = test system: SR; test: Cytotoxicity against human SR cells assessed as cellular growth at 10 uM after 48 hrs by SRB assay relative to control
# [33] = Cytotoxicity against human NCI-ADR-RES cells assessed as cellular growth at 10 uM after 48 hrs by SRB assay relative to control
# [34] = test system: SN12C; test: Cytotoxicity against human SN12C cells assessed as cellular growth at 10 uM after 48 hrs by SRB assay relative to control
# [35] = test system: NCI-H522; test: Cytotoxicity against human NCI-H522 cells assessed as cellular growth at 10 uM after 48 hrs by SRB assay relative to control
# [36] = test system: HCT-15; test: Cytotoxicity against human HCT15 cells assessed as cellular growth at 10 uM after 48 hrs by SRB assay relative to control
# [37] = test system: MCF7; test: Cytotoxicity against human MCF7 cells assessed as cellular growth at 10 uM after 48 hrs by SRB assay relative to control
# [38] = test system: HL-60(TB); test: Cytotoxicity against human HL-60(TB) cells assessed as cellular growth at 10 uM after 48 hrs by SRB assay relative to control
# [39] = test system: KM12; test: Cytotoxicity against human KM12 cells assessed as cellular growth at 10 uM after 48 hrs by SRB assay relative to control
# [40] = test system: T47D; test: Cytotoxicity against human T47D cells assessed as cellular growth at 10 uM after 48 hrs by SRB assay relative to control
# [41] = test system: SNB-75; test: Cytotoxicity against human SNB75 cells assessed as cellular growth at 10 uM after 48 hrs by SRB assay relative to control
# [42] = test system: NCI-H322M; test: Cytotoxicity against human NCI-H322M cells assessed as cellular growth at 10 uM after 48 hrs by SRB assay relative to control
# [43] = test system: OVCAR-3; test: Cytotoxicity against human OVCAR3 cells assessed as cellular growth at 10 uM after 48 hrs by SRB assay relative to control
compound,measurement,setting,value
O=C(O)CCCn1c2c(sc3ccccc32)c(=O)n2nnc(-c3ccccc3)c12,Activity,[1],89.28%
same,Activity,[2],92.35%
same,Activity,[3],51.92%
same,Activity,[4],154.53%
same,Activity,[5],89.16%
same,Activity,[6],107.65%
same,Activity,[7],98.3%
same,Activity,[8],76.27%
same,Activity,[9],94.66%
same,Activity,[10],94.87%
same,Activity,[11],79.06%
same,Activity,[12],75.64%
same,Activity,[13],69.07%
same,Activity,[14],92.89%
same,Activity,[15],82.97%
same,Activity,[16],92.52%
same,Activity,[17],94.14%
same,Activity,[18],91.25%
same,Activity,[19],106.11%
same,Activity,[20],93.76%
same,Activity,[21],60.48%
same,Activity,[22],96.49%
same,Activity,[23],111.46%
same,Activity,[24],92.57%
same,Activity,[25],89.47%
same,Activity,[26],107.41%
same,Activity,[27],118.45%
same,Activity,[28],79.01%
same,Activity,[29],96.03%
same,Activity,[30],93.19%
same,Activity,[31],96.85%
same,Activity,[32],117.58%
same,Activity,[33],107.52%
same,Activity,[34],88.81%
same,Activity,[35],34.84%
same,Activity,[36],66.61%
same,Activity,[37],84.04%
same,Activity,[38],113.58%
same,Activity,[39],86.08%
same,Activity,[40],78.01%
same,Activity,[41],83%
same,Activity,[42],86.21%
same,Activity,[43],103.59%
